We go through five compounds from ChEMBL document CHEMBL1770059, “Identification of chemicals to inhibit the kinase activity of leucine-rich repeat kinase 2 (LRRK2), a Parkinson's disease-associated protein” (Bioorg Med Chem Lett, 2011).

The test system of series [1] is Leucine-rich repeat serine/threonine-protein kinase 2 (Homo sapiens), Q5S007 [G2019S]. The series can be described thus: Inhibition of purified N-terminal GST-tagged LRRK2 G2019S mutant autophosphorylation activity using myelin basic protein as substrate at 25 uM.
For series [2] the test system is unchanged. The series can be described thus: Inhibition of LRRK2 G2019S mutant expressed in mouse SN4741 cells assessed as reduction in hydrogen peroxide-induced neurotoxicity at 10 uM by measuring cell survival after 48 hrs by crystal violet assay relative to control. Format: cell-based.
The target of series [3] is Leucine-rich repeat serine/threonine-protein kinase 2 (Homo sapiens) (UniProt Q5S007). The series can be described thus: Inhibition of wild type LRRK2 expressed in mouse SN4741 cells assessed as reduction in hydrogen peroxide-induced neurotoxicity at 10 uM by measuring cell survival after 48 hrs by crystal violet assay relative to control. The format is cell-based.
Series [4] in a line: Neurotoxicity in rat primary cortical neurons assessed as cell survival at 10 uM after 24 hrs by MTT assay. The format is toxicity, cell-based, Cerebral cortex neuron. As to conditions: read-out: Activity.
Series [5] concerns the target Dual specificity tyrosine-phosphorylation-regulated kinase 1A (Homo sapiens) (UniProt Q13627). The series can be described thus: Inhibition of DYRK1A expressed in bacteria using [gamma32-P]ATP at 25 uM.
In series [6] the target is Leucine-rich repeat serine/threonine-protein kinase 2 (Homo sapiens, UniProt Q5S007, G2019S). In words: Inhibition of purified N-terminal GST-tagged LRRK2 G2019S mutant autophosphorylation activity using [gamma32-P]ATP.
Series [7] in a line: Neurotoxicity in rat primary cortical neurons assessed as cell survival at 100 uM after 24 hrs by MTT assay. Format: toxicity, cell-based. As to conditions: cerebral cortex neuron.

Activity calls are given as the source filed them. No cut-off for these calls is given here.

Sequence of Leucine-rich repeat serine/threonine-protein kinase 2 (Homo sapiens), Q5S007 [G2019S] (Q5S007 whole entry G2019S): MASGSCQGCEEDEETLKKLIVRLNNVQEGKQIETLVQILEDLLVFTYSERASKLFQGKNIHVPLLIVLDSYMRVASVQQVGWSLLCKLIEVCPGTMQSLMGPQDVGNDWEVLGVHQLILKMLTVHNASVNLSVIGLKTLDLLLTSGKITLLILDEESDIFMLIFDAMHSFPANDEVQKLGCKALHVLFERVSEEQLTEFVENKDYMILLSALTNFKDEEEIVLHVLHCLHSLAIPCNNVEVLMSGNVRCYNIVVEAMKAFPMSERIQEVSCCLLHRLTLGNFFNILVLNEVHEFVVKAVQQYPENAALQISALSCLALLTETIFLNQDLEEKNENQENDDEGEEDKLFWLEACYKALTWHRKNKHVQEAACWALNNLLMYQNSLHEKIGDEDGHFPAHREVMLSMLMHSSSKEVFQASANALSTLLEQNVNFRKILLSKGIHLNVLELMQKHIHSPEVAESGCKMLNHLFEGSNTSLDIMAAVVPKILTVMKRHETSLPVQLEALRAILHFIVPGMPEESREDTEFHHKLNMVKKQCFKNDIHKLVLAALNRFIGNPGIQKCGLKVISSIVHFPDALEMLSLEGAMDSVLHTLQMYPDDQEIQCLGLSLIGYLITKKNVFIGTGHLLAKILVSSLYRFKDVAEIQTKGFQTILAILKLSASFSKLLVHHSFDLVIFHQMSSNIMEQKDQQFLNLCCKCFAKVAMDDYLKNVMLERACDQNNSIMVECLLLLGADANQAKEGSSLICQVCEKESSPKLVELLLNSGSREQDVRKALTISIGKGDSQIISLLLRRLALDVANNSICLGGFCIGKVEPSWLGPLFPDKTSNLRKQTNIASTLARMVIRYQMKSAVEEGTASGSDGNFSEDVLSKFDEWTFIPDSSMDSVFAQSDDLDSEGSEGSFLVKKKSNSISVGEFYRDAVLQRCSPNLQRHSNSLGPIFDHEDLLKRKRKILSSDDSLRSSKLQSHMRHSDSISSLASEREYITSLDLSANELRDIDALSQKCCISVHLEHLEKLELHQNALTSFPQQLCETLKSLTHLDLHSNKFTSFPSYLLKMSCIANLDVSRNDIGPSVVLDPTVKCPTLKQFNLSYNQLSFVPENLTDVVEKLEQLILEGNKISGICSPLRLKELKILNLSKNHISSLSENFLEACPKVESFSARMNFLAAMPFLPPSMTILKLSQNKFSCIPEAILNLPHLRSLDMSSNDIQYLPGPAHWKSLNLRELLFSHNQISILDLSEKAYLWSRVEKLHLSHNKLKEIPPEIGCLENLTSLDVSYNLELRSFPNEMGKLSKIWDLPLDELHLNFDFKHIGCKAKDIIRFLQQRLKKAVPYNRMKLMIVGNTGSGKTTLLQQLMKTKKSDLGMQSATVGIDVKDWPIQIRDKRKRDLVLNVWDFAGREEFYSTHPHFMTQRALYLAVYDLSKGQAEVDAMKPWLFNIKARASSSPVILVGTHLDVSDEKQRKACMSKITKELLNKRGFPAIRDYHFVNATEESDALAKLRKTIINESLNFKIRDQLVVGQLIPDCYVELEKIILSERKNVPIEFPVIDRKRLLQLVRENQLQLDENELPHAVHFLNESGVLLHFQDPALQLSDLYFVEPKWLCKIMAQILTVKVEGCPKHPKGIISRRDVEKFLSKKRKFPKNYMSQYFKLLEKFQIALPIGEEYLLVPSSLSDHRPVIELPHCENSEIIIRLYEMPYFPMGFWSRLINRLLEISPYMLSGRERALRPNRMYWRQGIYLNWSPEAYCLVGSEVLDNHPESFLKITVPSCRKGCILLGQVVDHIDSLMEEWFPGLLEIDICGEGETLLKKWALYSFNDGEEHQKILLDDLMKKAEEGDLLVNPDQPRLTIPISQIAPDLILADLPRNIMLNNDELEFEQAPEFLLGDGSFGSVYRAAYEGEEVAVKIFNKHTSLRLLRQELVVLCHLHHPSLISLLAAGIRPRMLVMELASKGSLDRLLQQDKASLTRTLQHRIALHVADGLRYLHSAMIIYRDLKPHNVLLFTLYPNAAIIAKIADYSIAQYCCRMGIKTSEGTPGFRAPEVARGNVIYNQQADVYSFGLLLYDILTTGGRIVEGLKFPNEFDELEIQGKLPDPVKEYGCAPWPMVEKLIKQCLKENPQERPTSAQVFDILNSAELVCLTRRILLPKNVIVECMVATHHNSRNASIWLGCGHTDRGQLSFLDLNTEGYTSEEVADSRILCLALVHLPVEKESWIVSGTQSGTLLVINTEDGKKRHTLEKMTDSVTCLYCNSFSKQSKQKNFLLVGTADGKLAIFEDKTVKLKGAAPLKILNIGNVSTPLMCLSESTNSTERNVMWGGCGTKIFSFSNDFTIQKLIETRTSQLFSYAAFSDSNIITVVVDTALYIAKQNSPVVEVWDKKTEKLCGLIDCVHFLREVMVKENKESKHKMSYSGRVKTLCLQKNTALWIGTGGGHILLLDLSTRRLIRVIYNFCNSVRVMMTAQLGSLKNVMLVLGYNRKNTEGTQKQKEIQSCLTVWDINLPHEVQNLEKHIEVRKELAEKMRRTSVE
Sequence of Leucine-rich repeat serine/threonine-protein kinase 2 (Homo sapiens) (Q5S007 whole entry): as the sequence (Q5S007 whole entry G2019S) above, with S2019G counted along it
Sequence of Leucine-rich repeat serine/threonine-protein kinase 2 (Q5S007 whole entry G2019S): as the sequence (Q5S007 whole entry G2019S) above

`Cc1ccc2cc(C)c(N/N=C/c3ccc(O)cc3)nc2c1`: the inhibition result in series [1] was “Active”.
Same read-out and setting: the entry for `Oc1ccc(/C=N/Nc2ccc3ccccc3n2)c(O)c1` is “Active”.
Regarding `COc1ccc(/C=N/Nc2ccc3ccccc3n2)cc1`, in series [1], the inhibition result was “Active”.
For the compound `COc1cc(/C=N/Nc2nc3cc(C)ccc3cc2C)ccc1O`, the inhibition result in series [1] is “Active”.
`Cc1cc(N/N=C/c2ccc(O)c(O)c2)nc2ccccc12`: in series [1], the inhibition entry is “Active”. Also, the Activity in series [2] is 50%; in series [3] it was 50%; in series [7] it was “Toxic”. For the same compound, in series [4], the viability at 24 h, 10 µM amounted to 85%. Moreover, the inhibition entry in series [5] is “inactive”. The IC50 in series [6] turned out to be 13.2 µM.
